Experiment: In vitro dissolution of rofecoxib in T80/PBS
Assay type: physicochemical
Details: after 1 hour; PBS containing 0.08% Tween 80, 200 mL; FIG. 2, FIG. 3
Protocol: Rofecoxib containing materials (either tablets, or bulk rofecoxib powder, or porous rofecoxib matrix powder) containing 20-31 mg of rofecoxib were added to 200 mL of 5% dextrose at room temperature in a 600 mL beaker. For bulk rofecoxib powder and porous rofecoxib matrix powder the resulting suspension was stirred for 5 minutes. For tablets (either marketed rofecoxib tablets (VIOXX®) or porous rofecoxib matrix tablet) the resulting suspension was stirred for 3-4 minutes beyond the time required for complete tablet disintegration. A sample of the suspension (containing 0.050-0.077 mg of rofecoxib) was then transferred to the dissolution vessel.
Dissolution studies for rofecoxib were conducted in PBS (phosphate buffered saline) containing 0.08% Tween 80 (T80/PBS). The dissolution vessel was a 600 mL beaker containing 200 mL of T80/PBS, and was stirred Samples were removed via pipet and centrifuged for 5 minutes at 10,000 rpm. Samples were analyzed by HPLC for rofecoxib. Control samples (for total rofecoxib concentration in the suspension vessel) were removed via pipet, and dissolved in acetonitrile, and the resulting solutions analyzed by HPLC for rofecoxib. […]

percent dissolved (relative to total rofecoxib concentration in the suspension vessel): 41%
SMILES: CS(=O)(=O)c1ccc(C2=C(c3ccccc3)C(=O)OC2)cc1 [rofecoxib, 4-[4-(methylsulfonyl)phenyl]-3-phenyl-2(5H)-furanone]
